One series can be described thus: in vivo. To be noted: rat; for LD50 at 336 h: in vivo, po. An excerpt:
The substances were fed as a trituration in Tylose.
The calculation of the LD50 values was effected, as far as possible according to the method of Litchfield and Wilcoxon, based on the percentage of animals which died within 14 days after administration of the different doses.

Series [1] deals with kaolin-induced edema and carrageenin-induced edema of the hind paw of the rat. Kind of series: Antiphlogistic (antiexudative) activity, kaolin and carrageenin edema together. Type of series: in vivo, rat (male FW 49). To be noted: average value from kaolin edema and carrageenin edema, per os. The method, then: The above pharmacodynamic activity of the compounds of the present invention, namely their antiphlogistic activity and their toxicity, were ascertained in the manner described below.
(§1) The compounds were tested with respect to their antiexudative effect on the kaolin-induced edema and the carrageenin-induced edema of the hind paw of the rat and with respect to their acute toxicity after oral administration to rats, in comparison with phenylbutazone, a compound with known antiphlogistic activities.
(§2) a. Kaolin-induced edema of the hind paw of the rat
(§3) The kaolin edema was induced according to the method given by Hillebrecht [Arzneimittel-Forsch. 4, 607 (1954)] by subplantary injection of 0.05 ml of a 10% suspension of kaolin in a 0.85% sodium chloride solution. Measurement of the volume of the paws was effected using the technique of Doepfner and Cerletti [Int. Arch. Allergy Immunol. 12, 89 (1958)].
(§4) Male FW 49 rats having an average weight of 120 to 150 gm were fed with the test compounds 30 minutes before inducing the edema by means of an oesophageal tube. 5 hours after the provocation of the edema the averaged values of the swelling caused in the rats treated with the test compounds were compared with values measured on control animals. By graphical extrapolation, the dose leading to a 35% reduction of the swelling (ED35) was calculated from the presentage reduction values measured by the administration of different doses.
(§5) b. Carrageenin-induced edema of the hind paw of the rat
The provocation of the carrageenin edema was effected according to the method of Winter et al [Proc. Soc. exp. […]
For the calculation of the reductive effect on the edema the values measured 3 hours after the provocation of the edema were used. […]
(§6) The therapeutical index (a measure for the therapeutic usefulness) was calculated as the quotient of the oral LD50 and of the ED35 value calculated from the anti-exudative effect (average value from the kaolin-edema and the carrageenin-edema).

Series [2] has as its system Kaolin-induced edema of the hind paw of the rat. Briefly: Kaolin-induced edema of the hind paw of the rat (antiexudative effect). Type of series: in vivo, rat (male FW 49). To be noted: per os, 30 min before edema, measured 5 h after, dose for 35% reduction of swelling, by graphical extrapolation. The method, then:
as §1, §2, §3, §4

Series [3] in a line: Therapeutic index (LD50/ED35). To be noted: in vivo; oral LD50 / average ED35, rat; read-out: Therapeutical Index, ratio between toxic and antiexudative activity LD50/ED35. The method, then: as §6
Series [4] deals with Carrageenin-induced edema of the hind paw of the rat. Briefly: Carrageenin-induced edema of the hind paw of the rat (antiexudative effect). The class given is in vivo, rat (male FW 49). To be noted: per os, 60 min before edema, measured 3 h after, dose for 35% reduction of swelling. The method, then:
as §1, §4, §5
The provocation of the carrageenin edema was effected according to the method of Winter et al [Proc. Soc. exp. Biol. Med. 111, 544 (1962)] by subplantary injection of 0.05 ml of a 1% solution of carrageenin in a 0.85% solution of sodium chloride. The test compounds were administered 60 minutes before the provocation of the edema.
For the calculation of the reductive effect on the edema the values measured 3 hours after the provocation of the edema were used. All the other details were the same as described above in the case of the kaolin-induced edema.
For orientation: Carrageenan injected into the paw causes an acute inflammation.

The source of these data is patent US3969418A, “(4-Biphenylyl)-butenols” (Boehringer Ingelheim GmbH, priority 1972, dated 1976).

The structures appear in SMILES notation.

Regarding `OCCC=Cc1ccc(-c2ccccc2)cc1` [B, 4-(4'-biphenylyl)-3-buten-1-ol], the “animals died after application” value in the series “in vivo” (2000 mgm/kg per os) is on record as 0 out of 10 animals died. Moreover, in “in vivo”, the LD50 (commonly the dose expected to kill half of the subjects tested) at 336 h is greater than 2000 mg/kg. For the same compound, the values for the ED35 in series [1], in series [2] and in series [4] were 46 mg/kg, 42 mg/kg and 50 mg/kg, respectively. The selectivity ratio in series [3] is greater than 43.5.

As to `CCCCC1C(=O)N(c2ccccc2)N(c2ccccc2)C1=O` [Phenylbutazone, phenylbutazone, reference compound], the values for the ED35 in series [1], in series [2] and in series [4] were 63.5 mg/kg, 58 mg/kg and 69 mg/kg, respectively.

On to `OCCC=Cc1ccc(-c2ccccc2F)cc1` [A, 4-(2"-fluoro-4'-biphenylyl)-3-buten-1-ol], for which the LD50 at 336 h in “in vivo” amounted to 1770 mg/kg. For the same compound, the ED35 in series [1] was 31.5 mg/kg; in series [2], 44 mg/kg; in series [4], 19 mg/kg. In series [3], the selectivity ratio is 56.2.
